Assay results as given in ChEMBL document CHEMBL1201862, “PubChem BioAssay data set” (2004).
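Assay format: 96-well plates, 48-hour exposure. Abbreviation: GI50, concentration required for 50% inhibition of growth.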 Activity calls are given as the source filed them. No stated cut-off is given here; in the data, active = GI50 up to about 1.1 µM and inactive = higher.

How the values were obtained:
Assay in all cases: NCI anticancer screen, dose series, 48 h
CCRF-CEM = system: CCRF-CEM
NCI/ADR-RES = system: NCI/ADR-RES
HOP-62 = system: HOP-62
MDA-MB-231 = system: MDA-MB-231
HOP-92 = system: HOP-92
Malme-3M = system: Malme-3M
T47D = system: T47D
UACC-62 = system: UACC-62
UO-31 = system: UO-31
NCI-H23 = system: NCI-H23
HCT-116 = system: HCT-116
RPMI-8226 = system: RPMI-8226
PC-3 = system: PC-3
SK-MEL-28 = system: SK-MEL-28
OVCAR-5 = system: OVCAR-5
786-0 = system: 786-0
OVCAR-4 = system: OVCAR-4
NCI-H522 = system: NCI-H522
NCI-H226 = system: NCI-H226
A549 = system: A549
KM12 = system: KM12
NCI-H460 = system: NCI-H460
SR = system: SR
EKVX = system: EKVX
MCF7 = system: MCF7
MDA-N = system: MDA-N
OVCAR-8 = system: OVCAR-8
UACC-257 = system: UACC-257
SNB-19 = system: SNB-19
ACHN = system: ACHN
LOX IMVI = system: LOX IMVI
SNB-75 = system: SNB-75
HCT-15 = system: HCT-15
COLO 205 = system: COLO 205
HCC 2998 = system: HCC 2998
SK-MEL-5 = system: SK-MEL-5
SF-295 = system: SF-295
IGROV-1 = system: IGROV-1
DU-145 = system: DU-145
SW-620 = system: SW-620
HL-60 = system: HL-60
TK-10 = system: TK-10
K562 = system: K562
SK-OV-3 = system: SK-OV-3
Hs-578T = system: Hs-578T
SF-539 = system: SF-539
MDA-MB-435 = system: MDA-MB-435
MOLT-4 = system: MOLT-4
BT-549 = system: BT-549
SN12C = system: SN12C
OVCAR-3 = system: OVCAR-3
M14 = system: M14
SF-268 = system: SF-268
HT-29 = system: HT-29
U-251 = system: U-251
RXF 393 = system: RXF 393
A498 = system: A498
SK-MEL-2 = system: SK-MEL-2
CAKI-1 = system: CAKI-1

In the case of CCOC1NC(=O)Oc2cc3ccccc3cc21 (stereo not given), the GI50 (CCRF-CEM) is reported as 36.5 µM (inactive), the GI50 (NCI/ADR-RES) is reported as 99.5 µM (inactive) and the GI50 (HOP-62) is reported as > 100 µM (inactive). The GI50 (MDA-MB-231) was > 100 µM (inactive), the GI50 (HOP-92) was 29.6 µM (inactive) and the GI50 (Malme-3M) was > 100 µM (inactive). The GI50 (T47D) was 39.6 µM (inactive), the GI50 (UACC-62) was 42.6 µM (inactive) and the GI50 (UO-31) was > 100 µM (inactive). For the same molecule, the GI50 (NCI-H23) was > 100 µM (inactive), the GI50 (HCT-116) was 35 µM (inactive) and the GI50 (RPMI-8226) was 95.9 µM (inactive). For the same molecule, the GI50 (PC-3) was 29 µM (inactive), the GI50 (SK-MEL-28) was > 100 µM (inactive) and the GI50 (OVCAR-5) was > 100 µM (inactive). For the same molecule, the GI50 (786-0) was > 100 µM (inactive), the GI50 (OVCAR-4) was > 100 µM (inactive) and the GI50 (NCI-H522) was > 100 µM (inactive). The GI50 (NCI-H226) was > 100 µM (inactive), the GI50 (A549) was > 100 µM (inactive) and the GI50 (KM12) was > 100 µM (inactive). The GI50 (NCI-H460) was > 100 µM (inactive), the GI50 (SR) was 48.5 µM (inactive) and the GI50 (EKVX) was > 100 µM (inactive). The GI50 (MCF7) was 35.6 µM (inactive), the GI50 (MDA-N) was > 100 µM (inactive) and the GI50 (OVCAR-8) was 48.6 µM (inactive). For the same molecule, the GI50 (UACC-257) was > 100 µM (inactive), the GI50 (SNB-19) was 64.3 µM (inactive) and the GI50 (ACHN) was > 100 µM (inactive). For the same molecule, the GI50 (LOX IMVI) was 67.1 µM (inactive), the GI50 (SNB-75) was 60.5 µM (inactive) and the GI50 (HCT-15) was 34.4 µM. For the same molecule, the GI50 (COLO 205) was > 100 µM (inactive), the GI50 (HCC 2998) was > 100 µM (inactive) and the GI50 (SK-MEL-5) was > 100 µM (inactive). The GI50 (SF-295) was > 100 µM (inactive), the GI50 (IGROV-1) was > 100 µM (inactive) and the GI50 (DU-145) was > 100 µM (inactive). For the same molecule, the GI50 (SW-620) was > 100 µM (inactive), the GI50 (HL-60) was 31.3 µM (inactive) and the GI50 (TK-10) was > 100 µM (inactive). For the same molecule, the GI50 (K562) was 40.6 µM (inactive), the GI50 (SK-OV-3) was > 100 µM (inactive) and the GI50 (Hs-578T) was > 100 µM (inactive). The GI50 (SF-539) was 68.1 µM (inactive), the GI50 (MDA-MB-435) was > 100 µM (inactive) and the GI50 (MOLT-4) was 34.8 µM (inactive). For the same molecule, the GI50 (BT-549) was 44.1 µM (inactive), the GI50 (SN12C) was > 100 µM (inactive) and the GI50 (OVCAR-3) was 30.2 µM (inactive). The GI50 (M14) was 39 µM (inactive), the GI50 (SF-268) was > 100 µM (inactive) and the GI50 (HT-29) was > 100 µM (inactive). The GI50 (U-251) was 36.1 µM (inactive) and the GI50 (RXF 393) was > 100 µM (inactive).

With COC(=O)c1c(O)ccc2c1c1c(n2Cc2ccccc2OC)C(=O)c2ccccc2C1 the GI50 (CCRF-CEM) was 24.6 µM (inactive), the GI50 (NCI/ADR-RES) was 29.3 µM (inactive) and the GI50 (HOP-62) was 75.5 µM (inactive). The GI50 (MDA-MB-231) was 44.1 µM (inactive), the GI50 (Malme-3M) was > 100 µM (inactive) and the GI50 (T47D) was 81.3 µM (inactive). The GI50 (UACC-62) was 76.4 µM (inactive), the GI50 (UO-31) was 44.5 µM (inactive) and the GI50 (NCI-H23) was 74.8 µM (inactive). The GI50 (A498) was > 100 µM (inactive), the GI50 (HCT-116) was 27.8 µM (inactive) and the GI50 (RPMI-8226) was 22.4 µM (inactive). The GI50 (PC-3) was 24 µM (inactive), the GI50 (SK-MEL-28) was > 100 µM (inactive) and the GI50 (786-0) was 78.9 µM (inactive). For the same molecule, the GI50 (OVCAR-4) was 29.7 µM (inactive), the GI50 (NCI-H226) was 70.3 µM (inactive) and the GI50 (A549) was 49.1 µM (inactive). The GI50 (KM12) was 93.5 µM (inactive), the GI50 (NCI-H460) was 29 µM (inactive) and the GI50 (SR) was 77.3 µM (inactive). For the same molecule, the GI50 (MCF7) was 23.7 µM (inactive), the GI50 (MDA-N) was 77.1 µM (inactive) and the GI50 (OVCAR-8) was 91.2 µM (inactive). The GI50 (UACC-257) was 34.7 µM (inactive), the GI50 (SNB-19) was > 100 µM (inactive) and the GI50 (LOX IMVI) was 47.2 µM (inactive). For the same molecule, the GI50 (SNB-75) was 61.9 µM (inactive), the GI50 (HCT-15) was 63.4 µM and the GI50 (SK-MEL-2) was 87.5 µM (inactive). For the same molecule, the GI50 (COLO 205) was 15.5 µM (inactive), the GI50 (SK-MEL-5) was 55.6 µM (inactive) and the GI50 (IGROV-1) was 63.1 µM (inactive). For the same molecule, the GI50 (DU-145) was > 100 µM (inactive), the GI50 (SW-620) was 81.1 µM (inactive) and the GI50 (HL-60) was > 100 µM (inactive). For the same molecule, the GI50 (TK-10) was > 100 µM (inactive), the GI50 (K562) was 70.5 µM (inactive) and the GI50 (SK-OV-3) was 78.5 µM (inactive). The GI50 (Hs-578T) was > 100 µM (inactive), the GI50 (SF-539) was 63.8 µM (inactive) and the GI50 (MDA-MB-435) was 45.3 µM (inactive). For the same molecule, the GI50 (MOLT-4) was 48.3 µM (inactive), the GI50 (BT-549) was > 100 µM (inactive) and the GI50 (SN12C) was 22.8 µM (inactive). For the same molecule, the GI50 (OVCAR-3) was 88.7 µM (inactive), the GI50 (M14) was 46.2 µM (inactive) and the GI50 (SF-268) was 40.5 µM (inactive). For the same molecule, the GI50 (HT-29) was 36.5 µM (inactive), the GI50 (U-251) was 63.4 µM (inactive) and the GI50 (CAKI-1) was 65.3 µM (inactive). The GI50 (RXF 393) was 26.5 µM (inactive).

Cc1ccc(S(=O)(=O)[N-]C2C(=O)c3ccccc3C(=O)C2[n+]2cccc(C(N)=O)c2)cc1 (stereo not given) was tested, and the GI50 (CCRF-CEM) was > 100 µM (inactive), the GI50 (NCI/ADR-RES) was > 100 µM (inactive) and the GI50 (HOP-62) was > 100 µM (inactive). The GI50 (MDA-MB-231) was 32.6 µM (inactive), the GI50 (HOP-92) was > 100 µM (inactive) and the GI50 (T47D) was 24 µM (inactive). For the same molecule, the GI50 (UACC-62) was > 100 µM (inactive), the GI50 (UO-31) was > 100 µM (inactive) and the GI50 (NCI-H23) was > 100 µM (inactive). For the same molecule, the GI50 (HCT-116) was 17.4 µM (inactive), the GI50 (RPMI-8226) was > 100 µM (inactive) and the GI50 (PC-3) was > 100 µM (inactive). The GI50 (SK-MEL-28) was > 100 µM (inactive), the GI50 (OVCAR-5) was > 100 µM (inactive) and the GI50 (786-0) was 30.8 µM (inactive). The GI50 (OVCAR-4) was 26.9 µM (inactive), the GI50 (NCI-H522) was > 100 µM (inactive) and the GI50 (NCI-H226) was > 100 µM (inactive). The GI50 (A549) was > 100 µM (inactive), the GI50 (KM12) was > 100 µM (inactive) and the GI50 (NCI-H460) was > 100 µM (inactive). For the same molecule, the GI50 (SR) was > 100 µM (inactive), the GI50 (EKVX) was > 100 µM (inactive) and the GI50 (MCF7) was > 100 µM (inactive). For the same molecule, the GI50 (MDA-N) was 34.8 µM (inactive), the GI50 (OVCAR-8) was > 100 µM (inactive) and the GI50 (UACC-257) was > 100 µM (inactive). For the same molecule, the GI50 (SNB-19) was > 100 µM (inactive), the GI50 (ACHN) was > 100 µM (inactive) and the GI50 (LOX IMVI) was 30.7 µM (inactive). The GI50 (SNB-75) was > 100 µM (inactive), the GI50 (HCT-15) was over 100 µM and the GI50 (SK-MEL-2) was > 100 µM (inactive). The GI50 (COLO 205) was 24.8 µM (inactive), the GI50 (HCC 2998) was 38.5 µM (inactive) and the GI50 (SK-MEL-5) was > 100 µM (inactive). The GI50 (SF-295) was > 100 µM (inactive), the GI50 (IGROV-1) was > 100 µM (inactive) and the GI50 (DU-145) was 40.6 µM (inactive). For the same molecule, the GI50 (SW-620) was > 100 µM (inactive), the GI50 (HL-60) was > 100 µM (inactive) and the GI50 (TK-10) was 33.9 µM (inactive). The GI50 (K562) was > 100 µM (inactive), the GI50 (SK-OV-3) was > 100 µM (inactive) and the GI50 (Hs-578T) was > 100 µM (inactive). The GI50 (SF-539) was > 100 µM (inactive), the GI50 (MDA-MB-435) was > 100 µM (inactive) and the GI50 (MOLT-4) was > 100 µM (inactive). For the same molecule, the GI50 (BT-549) was > 100 µM (inactive), the GI50 (SN12C) was 30.3 µM (inactive) and the GI50 (OVCAR-3) was > 100 µM (inactive). For the same molecule, the GI50 (M14) was > 100 µM (inactive), the GI50 (SF-268) was > 100 µM (inactive) and the GI50 (HT-29) was > 100 µM (inactive). The GI50 (U-251) was > 100 µM (inactive), the GI50 (CAKI-1) was 40.9 µM (inactive) and the GI50 (RXF 393) was > 100 µM (inactive).
